# Laboratory results taken from ChEMBL document CHEMBL1134259, “Antitumor agents. Part 204: synthesis and biological evaluation of substituted 2-aryl quinazolinones” (Bioorg Med Chem Lett, 2001).
# pEC50, pIC50: −log10 of the molar value. Active and inactive are the calls of the source. The rule behind the calls is not given here.
# Assays:
# 1A9 [1] = assay: In vitro effective concentration required to reduce the number of human ovarian cancer (1A9) after 3-day incubation; type: functional; conditions: for EC50: 1A9, 72 h, read-out: ED50 (the source's name)
# HCT-8 [2] = assay: In vitro effective concentration required to reduce the number of human ileocecal carcinoma (HCT-8) after 3-day incubation; type: functional; conditions: for EC50: HCT-8, 72 h, read-out: ED50 (the source's name)
# KB [3] = assay: In vitro effective concentration required to reduce the number of Human epidermoid carcinoma cells (KB) of nasopharynx after 3-day incubation; type: functional; conditions: 72 h, read-out: ED50 (the source's name)
# MCF7 [4] = assay: In vitro effective concentration required to reduce the number of human breast cancer (MCF-7) after 3-day incubation; type: functional; conditions: for EC50: 72 h, read-out: ED50 (the source's name)
# SK-MEL-2 [5] = assay: In vitro effective concentration required to reduce the number of human melanoma cancer (SKMEL-2) after 3-day incubation; type: functional; conditions: SK-MEL-2, 72 h, read-out: ED50 (the source's name)
# Tubulin = assay: Inhibitory concentration required against tubulin polymerization in the antimicrotubule activity test; type: functional
# A549 [6] = assay: In vitro effective concentration required to reduce the number of human lung carcinoma (A-549) after 3-day incubation; type: functional; conditions: A549, 72 h, read-out: ED50 (the source's name)
# H9 [7] = assay: Concentration required to inhibit viral replication in acutely infected H9 lymphocytes when tested for anti-HIV activity; type: functional, cell-based; conditions: Homo sapiens
# H9 [8] = assay: Concentration required to inhibit uninfected H9 cell growth when tested for anti-HIV activity; type: functional, cell-based; conditions: Homo sapiens
# KB [9] = assay: In vitro effective concentration required to reduce the number of P-glycoprotein-expressing human epidermoid carcinoma cells (KB-VIN) of nasopharynx after 3-day incubation; type: functional; conditions: 72 h, read-out: ED50 (the source's name)
# [10] = Therapeutic index (IC50/EC50) was determined.; conditions: read-out: Therapeutic index
# 1A9 [11] = assay: In vitro effective concentration required to reduce the number of human ovarian cancer cells (1A9) after 3-day incubation; type: functional; conditions: 1A9, 72 h, read-out: ED50 (the source's name)
# A549 [12] = assay: In vitro effective concentration required to reduce the number of human lung carcinoma cells (A-549) after 3-day incubation; type: functional; conditions: A549, 72 h, read-out: ED50 (the source's name)
# HCT-8 [13] = assay: In vitro effective concentration required to reduce the number of human ileocecal carcinoma cells(HCT-8) after 3-day incubation; type: functional; conditions: HCT-8, 72 h, read-out: ED50 (the source's name)
# MCF7 [14] = assay: In vitro effective concentration required to reduce the number of human breast cancer cells (MCF-7) after 3-day incubation; type: functional; conditions: MCF7, 72 h, read-out: ED50 (the source's name)
# SK-MEL-2 [15] = assay: In vitro effective concentration required to reduce the number of human melanoma cancer cells (SKMEL-2) after 3-day incubation; type: functional; conditions: SK-MEL-2, 72 h, read-out: ED50 (the source's name)
# [16] = Therapeutic index (IC50/EC50) was determined; Did not dissolve
# Tumor cell line = assay: Tested for inhibitory activity against growth of about half of NCI's drug screen tumor cell lines at subnanomolar concentrations; type: functional; conditions: read-out: Log TGI (converted)
EC50 (1A9 [1]) [µg/mL],EC50 (HCT-8 [2]) [µg/mL],EC50 (KB [3]) [µg/mL],EC50 (MCF7 [4]) [µg/mL],EC50 (SK-MEL-2 [5]) [µg/mL],pIC50 (Tubulin),EC50 (A549 [6]) [µg/mL],pEC50 (H9 [7]),EC50 (KB [9]) [µg/mL],Structure (SMILES),pIC50 (H9 [8]),selectivity ratio [10],Therapeutic index [16],further results
4.7,> 40,1.98,37.5,> 40,5.31,28.1,–,–,COc1cccc(-c2nc(O)c3cc(OC)ccc3n2)c1,–,–,–,–
> 20,17,< 5,13.1,< 5,< 4.40,< 5,4.96,< 5,COc1cc2nc(-c3ccccc3F)nc(O)c2cc1OC,4.00,9.17,–,–
–,–,> 20,–,–,< 4.40,–,–,17.5,Oc1nc(-c2ccccc2F)nc2ccccc12,–,–,Did not dissolve,EC50 (1A9 [11]): 17.1 µg/mL; EC50 (A549 [12]): > 20 µg/mL; EC50 (HCT-8 [13]): > 20 µg/mL; EC50 (MCF7 [14]): > 20 µg/mL; EC50 (SK-MEL-2 [15]): > 20 µg/mL
17.5,> 20,> 20,14.5,–,5.19,> 20,–,19,COc1cccc(-c2nc(O)c3cc(OC)c(OC)cc3n2)c1,–,–,–,–
> 20,–,> 20,> 20,> 20,< 4.40,9.8,5.02,8.5,Oc1nc(-c2cccc(F)c2)nc2ccccc12,4.51,3.22,–,ED50 (HCT-8 [2]): inactive
8,19.1,12.5,10.3,13,< 4.40,14.4,–,6,Oc1nc(-c2ccc3ccccc3c2)nc2ccccc12,–,–,Did not dissolve,–
> 20,–,> 20,> 20,> 20,< 4.40,7.5,5.04,6.5,Oc1nc(-c2ccc(F)cc2)nc2ccccc12,4.41,4.22,–,ED50 (HCT-8 [2]): inactive
16,> 20,> 20,19.8,> 20,< 4.40,> 20,–,> 20,COc1cc2nc(-c3ccc(F)cc3)nc(O)c2cc1OC,–,–,Did not dissolve,–
> 20,> 20,–,–,> 20,< 4.40,> 20,–,> 20,COc1cc2nc(-c3cccc(F)c3)nc(O)c2cc1OC,–,–,Did not dissolve,ED50 (MCF7 [4]): inactive
–,> 20,–,> 20,> 20,5.07,> 20,–,> 20,COc1cccc(-c2nc(O)c3ccccc3n2)c1,–,–,–,ED50 (1A9 [1]): inactive
–,–,–,–,–,–,–,–,–,COc1cccc(-c2cc(O)c3cc(N4CCCC4)ccc3n2)c1,–,–,–,TGI (Tumor cell line): < 0.001 µM
7.8,> 10,7.3,6.6,8.5,< 4.40,8,5.12,1.6,COc1cc2nc(-c3ccc4ccccc4c3)nc(O)c2cc1OC,4.00,13.2,–,–
